Entries after “also recorded” stand apart in the source; their conditions may differ.
Assays:
[1] = tested on: Niemann-Pick C1-like 1 (NPC1L1) protein; conditions: by targeting NPC1L1; cited from earlier work
mice = conditions: cited from earlier work
LDLR null mice = assay: Plasma Serum Amyloid A (SAA) levels in LDLR null mice fed Western diet for two weeks; assay type: in vivo, mouse; conditions: statement over the experiments of Example 3 (single agents four out of four, Combined Formulation three out four, Novel Method three out three experiments)
Method: The plasma from the mice in FIG. 1 was analyzed for SAA as described as described (see, e.g., Chattopadhyay et al. (2015) Pharma. Res. Per. 3: e00154; Chattopadhyay et al. (2016) J. Lipid. Res. 57: 832-847).
Female LDLR null mice age 5-8 months (n=20 per group) were fed standard mouse chow (Chow) or a Western diet high in cholesterol and fat (WD) or were fed WD+0.06% by weight of a freeze-dried concentrate of transgenic tomatoes expressing the apoA-I mimetic peptide 6F, which was prepared as previously described (see, e.g., Chattopadhyay et al. (2015) Pharma. Res. Per. 3: e00154; Chattopadhyay et al. (2016) J. Lipid Res. 57: 832-847; PCT Pub. Nos: WO 2013/148214 (PCT/US2013/031037), WO 2015/175968 (PCT/US2015/031134)) (Tg6F), or the mice were fed WD with Ezetimibe added to give a daily dose of 10 mg/kg body weight/day (WD+Ezetimibe), or the mice were fed WD with Tg6F added at 0.06% by weight plus Ezetimibe (each added separately to the diet) to give a daily dose of Ezetimibe of 10 mg/kg body weight; the Tg6F and Ezetimibe were mixed into WD as described previously (Chattopadhyay et al. (2016) J. Lipid. […] After feeding the diets for two weeks, the mice were bled and total plasma cholesterol levels were determined as described (Id.). […]

## O=C1[C@H](CC[C@H](O)c2ccc(F)cc2)[C@@H](c2ccc(O)cc2)N1c1ccc(F)cc1 [Ezetimibe, (3R,4S)-1-(4-fluorophenyl)-3-[(3S)-3-(4-fluorophenyl)-3-hydroxypropyl]-4-(4-hydroxyphenyl)azetidin-2-one]
[1]
  transintestinal cholesterol efflux (TICE): promotes TICE
mice
  ED50 value: 700 µg/kg/day
LDLR null mice
  plasma SAA levels: equally effective; also recorded: significantly decreased the levels

From patent US10905736B2, “Ezetimibe-associated ApoA-I mimetic peptides showing enhanced synergism” (The Regents of the University of California, priority 2016, dated 2021)
